Laboratory results taken from patent US9700609B2, “Compositions for treatment and/or prevention of autoimmune disorders” (University of Florida Research Foundation, Incorporated, priority 2013, dated 2017).

Tests used:
[1] = system: CD11b+ and CD11c+ leukocytes (APC); assay: APC frequency and MHC expression by flow cytometry in splenocyte cultures with graded doses of bacteria and anti-CD3; assay type: cell-based, NOD and NOR mice
Method: FIG. 8. LjN6.2, but not LrTD1, increases APC activation in NOD mice. Spleenocytes derived from NOD or NOR mice, were cultured with graded doses of LjN6.2 or LrTD1 in the presence of anti-CD3. Following 48 hours incubation, samples were analyzed through flow cytometry for APC activation. A) Histograms showing changes in CD11b and CD11c frequencies upon treatment of NOD in vitro leukocyte cultures with LjN6.2 (red), LrTD1(black) or CD3 (shaded). B) Graphs showing percentage of CD11b^+ and CD11c^+ leukocytes in NOD and NOR cells cultures incubated with graded doses of bacteria as indicated. C) Graphs showing changes in MHC expression levels on CD11c^+ and CD11b^+ APC upon treatment with graded doses of LjN6.2 (shaded square) or LrTD1 (open square).
(§1) Whole lymphocytes or BMOC were incubated with 4 μg/mL anti-CD3, (LjN6.2) and/or L. reuteri TD1 (LrTD1) at various concentrations as indicated. At 48 hours, 100 μL of supernatant was removed from each well and replenished with fresh medium. Cytokine ELISAs were subsequently performed on harvested supernatants. ELISA kits were purchased from BD Bioscience: anti-IFNγ (555138; BD Biosciences, San Diego, Calif.), and anti-IL6 (555240). Capture mAb (555068) and detection mAb (555067) for IL17 were purchased from BD Biosciences. Cytokine standard for IL-17A was purchased from eBioscience (14-8171-80).
(§2) Single cell suspensions of pooled LN (axillary, inguinal, brachial, mesenteric, and superficial cervical), and spleen were stained with the following mAbs for flow-cytometric analysis: anti-CD4-Pacific Blue (RM4-5), anti-MHC I-FitC (KH95), anti-CD11c-PE (N418; eBioscience, San Diego, Calif.), anti-B220-APC (RA3-6B2, eBioscience), anti-CD11b-A700 (M1/70), anti-CD11b-FitC (M1/70, eBioscience), […] (N418, eBioscience), anti CD86-A700 (GL1), anti-CD80-PE (16-10A1), DEC 205-APC (205yekta) and anti-MHC II-FC (39-10-8) mAb. All flow cytometry antibodies were purchased from BD PharMingen unless otherwise stated. 50,000-100,000 live events were collected on a LSRII (BD PharMingen) and analyzed using FlowJo software (Tree Star, San Carlos, Calif.). The absolute numbers of cells recovered from various organs was determined by multiplying the total number of cells isolated from various tissues by the percentage of total cells bearing a lineage specific marker denoted by flow cytometry.

BBDP rats = details: cited from earlier work; for Th17 bias: BBDP rat and NOD mouse (Lau et al. (2011)); for T1D resistance: oral transfer to BBDP rats (Valladares et al. (2010))
DEC205 on CD11c+ DC = assay: DEC205 expression on CD11c+ DC in splenocyte cultures, flow cytometry; assay type: cell-based, NOD and NOR mice; details: both NOD and NOR CD11c+ DC, dose dependent
Method: FIG. 9. Enhanced DC maturation mediated by LjN6.2 surface antigens. Spleenocytes derived from NOD or NOR mice, were cultured with graded doses of LjN6.2 or LrTD1in the presence of anti-CD3, as in FIG. 4. Subsequent to incubation, samples were analyzed for expression of the endocytic marker, DEC 205. A) Overlay histograms showing changes in DEC205 frequency on CD11c^+ DC upon treatment of NOD cultures with varying doses of LjN6.2 and LrTD1. B) Graphical representations of DEC205 expression on CD11c^+ DC present within NOD and NOR cultures upon incubation with varying doses of LjN6.2 and LrTD1. […]
as §2, with “All flow cytometry antibodies were purchased from BD PharMingen unless otherwise stated.” left out, “The absolute numbers of cells recovered from various organs was determined by multiplying the total number of cells isolated from various tissues by the percentage of total cells bearing a lineage specific marker denoted by flow cytometry.” left out

BMDC = assay: IL6 production by BMDC incubated with LjN6.2 or lysed bacterial components, ELISA; assay type: cell-based, NOD mice; details: NOD BMDC matured with GM-CSF
Method: FIG. 9. Enhanced DC maturation mediated by LjN6.2 surface antigens. Spleenocytes derived from NOD or NOR mice, were cultured with graded doses of LjN6.2 or LrTD1in the presence of anti-CD3, as in FIG. 4. Subsequent to incubation, samples were analyzed for expression of the endocytic marker, DEC 205. A) Overlay histograms showing changes in DEC205 frequency on CD11c^+ DC upon treatment of NOD cultures with varying doses of LjN6.2 and LrTD1. B) Graphical representations of DEC205 expression on CD11c^+ DC present within NOD and NOR cultures upon incubation with varying doses of LjN6.2 and LrTD1. C) Maturing DC (BMDC), derived from NOD mice were matured in the presence of GM-CSF, followed by incubation with LjN6.2 or beadbeater lysed LjN6.2 bacterial cellular components. Left, graph showing IL6 production by BMDC incubated with either intact LjN6.2, or fractional equivalents of nonviable lysed LjN6.2 components defined by ultracentrifugation as membrane (pellet components) or cytosolic (soluble) components. […]
Bacterial cells were incubated with 0.1 mm glass beads and homogenized through the use of a beadbeater (Qbiogene) according to manufacturers' instructions. […] Efficiency of bacterial disruption was assessed through the culture of bacterial lysates on agar plates under anaerobic conditions.

[2] = system: LN cells (CD11b+ leukocytes); assay: CD11b and CD40 expression in pooled LN cells cultured with bacteria, flow cytometry; assay type: cell-based, NOD mice; details: NOD pooled LN cells, 48 hour incubation
Method: (§3) FIG. 12. LjN6.2 but not LrTD1 up-regulates expression of CD11b. LN cells (brachial, inguinal, cervical and mesenteric) were isolated from NOD mice and pooled, followed by culturing in the presence or absence of bacteria. After 48 hour incubation, supernatants were removed and cells were analyzed by flow cytometry. Please note that concentration 1 (Lj1 and Lr1) is 3 fold higher than concentration 2 (Lj2 and Lr2).
as §3, with “13. […]” for “12. LjN6.2 but not LrTD1 up-regulates expression of CD11b.”, “pooled” for “pooled,”, “culture” for “culturing”, “cytometry. CD11b^+ cells were first gated and then further analyzed for CD40 expression.” for “cytometry.”
Single cell suspensions of pooled LN (axillary, inguinal, brachial, mesenteric, and superficial cervical), and spleen were stained with the following mAbs for flow-cytometric analysis: anti-CD4-Pacific Blue (RM4-5), anti-MHC I-FitC (KH95), anti-CD11c-PE (N418; eBioscience, San Diego, Calif.), anti-B220-APC (RA3-6B2, eBioscience), anti-CD11b-A700 (M1/70), anti-CD11b-FitC (M1/70, eBioscience), […] (N418, eBioscience), anti CD86-A700 (GL1), anti-CD80-PE (16-10A1), DEC 205-APC (205yekta) and anti-MHC II-FC (39-10-8) mAb. […]

T lymphocytes = assay: IFNγ production and IFNγ+/IL17+ T lymphocytes after bacterial treatment; assay type: cell-based
Method: FIG. 14. L. johnsonii modulates adaptive immune response. […] Also, L. johnsonii increased the percentages of IFNγ^+ and IL17^+ T lymphocytes in a dose dependent manner.
as §1

NOD mice = assay: Systemic Th17 bias after oral feeding or pulsed DC vaccination; assay type: in vivo; details: oral feeding
Excerpt: In apparent contrast, T1D onset can also be inhibited through the generation of Foxp3^+ regulatory T cells which can be mediated by tolerogenic, immature DC. […] Therefore, restoration of DC function by oral administration of specific bacteria, or administration of a vaccine composed of gut flora modified DC, can be used to restore immune tolerance.

| Substance | modulation of MHC ([1]; CD11c+ and CD11b+ APC, in contrast to LjN6.2) | Th17 bias (BBDP rats) | T1D resistance (BBDP rats) | levels of MHC classes I and II on CD11c+ DC ([1]; NOD derived CD11c+ DC, dose dependent) | frequency of both CD11b+ and CD11c+ leukocytes ([1]; NOD derived primary cell cultures, graded doses, anti-CD3, 48 hours) | frequency of CD11b+ and CD11c+ leukocytes ([1]; NOR cultures, graded doses, anti-CD3, 48 hours) | MHCI and MHCII expression on CD11c+ DC ([1]; NOR derived CD11c+ DC) | CD11b+MHCIhi leukocytes ([1]; both NOD and NOR cultures) | frequency of CD11b+MHCIIhi leukocytes ([1]; both NOD and NOR cultures) | DEC205 expression on CD11c+ DC (DEC205 on CD11c+ DC) | IL6 production by BMDC (BMDC) | CD11b expression [2] | CD40 expression on CD11b+ leukocytes [2] | IFNγ production (T lymphocytes; compared with L. reuteri) | percentages of IFNγ+ and IL17+ T lymphocytes (T lymphocytes; dose dependent) | systemic Th17 bias (NOD mice) |
| --- | --- | --- | --- | --- | --- | --- | --- | --- | --- | --- | --- | --- | --- | --- | --- | --- |
| L. reuteri TD1 [LrTD1] | reduced, or negligible | nor mediated a Th17 bias | neither conferred T1D resistance |  |  |  |  |  |  |  |  |  |  |  |  |  |
| Lactobacillus johnsonii N6.2 [LjN6.2] |  | APC dependent, Th17 bias observed | sufficient to confer T1D resistance | upregulated | consistently up-regulated | only moderately increased | failed to specifically increase | decrease | increase | down-regulation | copious amounts | up-regulates | up-regulated | more profoundly than L. reuteri | increased | sufficient to mediate a systemic Th17 bias |
